For this test, the system named is MM3MG-HER2Δ16 cells. Nature of the test: In vitro ADCP and ADCC by bone marrow derived macrophages (BMDM). The conditions noted are these: Concanamycin A 1 μM in BMDM co-culture. The test is classed as cell-based, mouse.

Experimental: MM3MG-HER2Δ16 cells were labeled with Brilliant Violet 450 Dye, and co-cultured with BMDM (3:1 ratio) with control or anti-HER2 antibodies (10 μg/mL). ADCP rates were measured by percentage of BMDM uptake of labeled tumor cells (CD45+and BV450+), and Antibody-dependent-cellular-cytotoxicity (ADCC) rates were measured by percentage of dying free tumor cells (CD45− and LIVE/DEAD stain+). […] All data represent mean ±SEM, **P<0.01, ***P<0.001, ****P<0.0001.
ADCP and ADCC by macrophages—Bone marrow derived macrophages (BMDM) were generated from mouse tibia, differentiated for 10 days with 50 ng/mL mouse MCSF (Peprotech 315-02). Briefly, 50 million bone marrow cells were plated in 10 cm^2 tissue culture dish with MCSF on day 0. Unattached cells in supernatant were removed and fresh media+MC SF were added on day 3, day 6 and day 9. BMDM were used for ADCP/ADCC assays on day 10. Tumor cells MM3MG-HER2416 were labeled with Brilliant Violet 450 Dye (BD 562158) according to manufacturer's protocol, and incubated with control or anti-HER2 antibodies (10 μg/mL) in 96-wells (100,000 cells/well) for 30 minutes at 37° C. BMDM were then added for co-culture at a 3:1 ratio of Tumor vs BMDM. After 2 hours co-culture, phagocytosis of BV450-labeled tumor cells by BMDM were analyzed by FACS with CD45-APC staining and Live-death (Red) staining. […]

For `C/C=C/[C@H]1O[C@@](O)([C@@H](C)[C@H](O)[C@H](C)[C@H]2OC(=O)/C(OC)=C/C(C)=C/[C@@H](C)[C@@H](O)[C@@H](CC)[C@@H](O)[C@H](C)C/C(C)=C/C=C/[C@@H]2OC)C[C@@H](O[C@H]2C[C@@H](O)[C@H](OC(N)=O)[C@@H](C)O2)[C@@H]1C` [Concanamycin A], the “effect of ADCC inhibitor on HER2 mAb activities” value was “had no effect on HER2 mAb activities”.
